Experimental data from patent US5849710A, “Substituted indolylmethylene-oxindole analogues as tyrosine kinase inhibitors” (Pharmacia & Upjohn S.p.A., priority 1995, dated 1998).
pIC50: −log10 of the molar value.

Assays:
[1] = biological target: p45 v-abl tyrosine kinase; test: in-vitro p45 v-abl kinase assay ((Val^5)-Angiotension II phosphorylation); format: biochemical, Abelson murine leukaemia virus; settings: ATP 50 μM, fixed peptide concentration, 40 ng abl-kinase, pH 8.0, 30° C.; read-out: Inhibition of p45 kinase, IC50 v-abl
Method: p45 v-abl Kinase Purification
The enzyme used in our test was the p45 v-abl tyrosine kinase which represents the catalytic domain of the Abelson tyrosine kinase (isolated from the Abelson murine leukaemia virus). The p45 v-abl kinase was produced and isolated as described by Wang et al. in J. Biol. Chem. 260, 64 (1985) and by Ferguson et al. in J. Biol. Chem. 260, 3652 (1985) and in Biochem. J. 257, 321 (1989).
(Val^5)-Angiotension II phosphorylation was performed by incubation with 40 ng of purified abl-kinase and (γ-^32 p)-ATP, in 50 μl of buffer containing Tris-HCl 25 mM, pH 8.0, MgCl2 10 mM and dithiothreitol 0.1 mM (kinase buffer). The reaction mixture was incubated for the indicated time at 30° C. and the reaction stopped by adding 50 μl of 5% trichloroacetic acid. After a brief incubation on ice, tubes were centrifuged. The supernatants were spotted on phosphocellulose paper squares (Whatman P-81) and washed extensively in acetic acid. The radioactivity bound to dried phosphocellulose squares was measured in a liquid scintillation counter. IC50 values were calculated from triplicated determinations of each experimental point. Each inhibitor was tested at concentrations ranging from […] in the presence of fixed concentrations of peptide (2 Mm) and ATP (50 μM). […]

K562 cells = test: K562 cell growth inhibition assay; format: cell-based; settings: human chronic myeloid leukemia K562 cells, 72 h, cell count vs untreated control
Method: K562 Cell Growth Inhibition Assay
K562 cells, a human myelogenous leukemia cell line, were seeded into a 24 wells tissue culture plate (Falcon 3047) (10000/well) in the presence of increasing concentrations of the compounds. After 72 h, cells were harvested and were counted using a cell counter (Coulter Counter-ZM). The percent of inhibition was evaluated in respect to the untreated control cells.
The inhibitory activity data for a representative group of compounds according to the present invention, obtained both in the in-vitro p45 v-abl kinase assay and in the in-vivo human chronic myeloid leukemia K562 cell growth inhibition assay described above, are set out in following Table 1.

Structure (SMILES)	pIC50 [1]	pIC50 (K562 cells)
COc1ccc2[nH]cc(C=C3C(=O)Nc4ccc(NC(=O)[C@H](C)NC(=O)[C@@H](N)CCC(=O)O)cc43)c2c1 [FCE 28437, 5-L-glutamyl-L-alanylamino-3-[(5'-methoxy-3'-indolyl)methylene]-2-indolinone]	6.30	4.83
O=C1Nc2ccc(C(=O)CN3CCCCC3)cc2C1=Cc1c[nH]c2ccccc12 [FCE 28484, 3-(indol-3-ylmethylene)-5-(2-piperidin-1-yl-acetyl)-2-indolinone]	6.11	5.32
